{"source": "patent US11124508B2", "about": "(priority 2017, dated 2021)"}
{"units": {"melting point": "°C"}}
{"smiles": "CC1(C)N=C(c2cnn3cc(Cl)ccc23)c2ccccc2C1(F)F", "note": "[X.003, 1-(6-chloropyrazolo[1,5-a]pyridin-3-yl)-4,4-difluoro-3,3-dimethyl-isoquinoline]", "melting point": "113 to 118"}
{"smiles": "CC1(C)N=C(c2cnn3cc(Br)ccc23)c2ccccc2C1(F)F", "note": "[X.006, 1-(6-bromopyrazolo[1,5-a]pyridin-3-yl)-4,4-difluoro-3,3-dimethyl-isoquinoline]", "melting point": "127 to 129"}
{"smiles": "Cc1ccc2c(C3=NC(C)(C)C(F)(F)c4ccccc43)cnn2c1", "note": "[X.005, 4,4-difluoro-3,3-dimethyl-1-(6-methylpyrazolo[1,5-a]pyridin-3-yl)isoquinoline]", "melting point": "105 to 107"}
{"smiles": "Cc1ccc2c(C3=NC(C)(C)C(C)(C)c4c(F)cccc43)cnn2c1C", "note": "[X.012, 1-(6,7-dimethylpyrazolo[1,5-a]pyridin-3-yl)-5-fluoro-3,3,4,4-tetramethyl-isoquinoline]", "melting point": "175 to 176"}
{"smiles": "Cc1ccn2c(C3=NC(C)(C)C(F)(F)c4ccccc43)cnc2c1C", "note": "[X.014, 1-(7,8-dimethylimidazo[1,2-a]pyridin-3-yl)-4,4-difluoro-3,3-dimethyl-isoquinoline]", "melting point": "159 to 161"}
{"smiles": "Cc1c(Br)ccc2c(C3=NC(C)(C)C(F)(F)c4ccccc43)cnn12", "note": "[X.007, 1-(6-bromo-7-methyl-pyrazolo[1,5-a]pyridin-3-yl)-4,4-difluoro-3,3-dimethyl-isoquinoline]", "melting point": "180 to 182"}
{"smiles": "Cc1ccc2c(C3=NC(C)(C)C(F)(F)c4ccccc43)cnn2c1C", "note": "[X.011, 1-(6,7-dimethylpyrazolo[1,5-a]pyridin-3-yl)-4,4-difluoro-3,3-dimethyl-isoquinoline]", "melting point": "160 to 161"}
{"smiles": "Cc1ccn2c(C3=NC(C)(C)C(C)(C)c4c(F)cccc43)cnc2c1C", "note": "[X.016, 1-(7,8-dimethylimidazo[1,2-a]pyridin-3-yl)-5-fluoro-3,3,4,4-tetramethyl-isoquinoline]", "melting point": "185 to 186"}
{"smiles": "Cc1cccn2c(C3=NC(C)(C)C(C)(C)c4c(F)cccc43)cnc12", "note": "[X.019, 5-fluoro-3,3,4,4-tetramethyl-1-(8-methylimidazo[1,2-a]pyridin-3-yl)isoquinoline]", "melting point": "160 to 161"}
{"smiles": "Cc1c(Cl)ccc2c(C3=NC(C)(C)C(F)(F)c4ccccc43)cnn12", "note": "[X.001, 1-(6-chloro-7-methyl-pyrazolo[1,5-a]pyridin-3-yl)-4,4-difluoro-3,3-dimethyl-isoquinoline]", "melting point": "166 to 168"}
{"smiles": "Cc1cccc2c(C3=NC(C)(C)C(C)(C)c4c(F)cccc43)cnn12", "note": "[X.013, 5-fluoro-3,3,4,4-tetramethyl-1-(7-methylpyrazolo[1,5-a]pyridin-3-yl)isoquinoline]", "melting point": "134 to 136"}
